Data: ChEMBL document CHEMBL5131429, “Synthesis and antifungal evaluation of phenol-derived bis(indolyl)methanes combined with FLC against Candida albicans” (Bioorg Med Chem Lett, 2022)
≈ marks a conversion by molar mass, not a printed value. Calls of active or inactive are those of the source. No cut-off for these calls is given here.

Columns and labels:
[1] = test system: Candida albicans; experiment: Antifungal activity against Candida albicans SC5314 by microdilution method; format: functional
[2] = test system: Candida albicans; experiment: Antifungal activity against Candida albicans CA23 by microdilution method; format: functional
[3] = test system: Candida albicans; experiment: Antifungal activity against Candida albicans SC5314 in presence of fluconazole by microdilution method; format: functional
[4] = test system: Candida albicans; experiment: Antifungal activity against Candida albicans CA23 in presence of fluconazole by microdilution method; format: functional
[5] = test system: Candida albicans; experiment: Antifungal activity against Candida albicans SC5314 assessed as fractional inhibitory concentration index in presence of fluconazole by microdilution method; format: functional
[6] = test system: Candida albicans; experiment: Antifungal activity against Candida albicans CA23 assessed as fractional inhibitory concentration index in presence of fluconazole by microdilution method; format: functional
[7] = test system: Candida albicans; experiment: Antifungal activity against Candida albicans ATCC14053 by microdilution method; format: functional
[8] = test system: Candida albicans; experiment: Antifungal activity against Candida albicans CA187 by microdilution method; format: functional
[9] = test system: Candida albicans; experiment: Antifungal activity against Candida albicans CA800 by microdilution method; format: functional
[10] = test system: Candida albicans; experiment: Antifungal activity against Candida albicans CA3816 by microdilution method; format: functional
[11] = test system: Candida albicans; experiment: Antifungal activity against Candida albicans CA3511 by microdilution method; format: functional
[12] = test system: Candida albicans; experiment: Antifungal activity against Candida albicans CA5408 by microdilution method; format: functional
[13] = test system: Candida albicans; experiment: Antifungal activity against Candida albicans CA558 by microdilution method; format: functional
[14] = test system: Candida albicans; experiment: Antifungal activity against Candida albicans CA602 by microdilution method; format: functional
[15] = test system: Candida albicans; experiment: Antifungal activity against Candida albicans ATCC14053 in presence of fluconazole by microdilution method; format: functional
[16] = test system: Candida albicans; experiment: Antifungal activity against Candida albicans CA187 in presence of fluconazole by microdilution method; format: functional
[17] = test system: Candida albicans; experiment: Antifungal activity against Candida albicans CA800 in presence of fluconazole by microdilution method; format: functional
[18] = test system: Candida albicans; experiment: Antifungal activity against Candida albicans CA3816 in presence of fluconazole by microdilution method; format: functional
[19] = test system: Candida albicans; experiment: Antifungal activity against Candida albicans CA3511 in presence of fluconazole by microdilution method; format: functional
[20] = test system: Candida albicans; experiment: Antifungal activity against Candida albicans CA5408 in presence of fluconazole by microdilution method; format: functional
[21] = test system: Candida albicans; experiment: Antifungal activity against Candida albicans CA558 in presence of fluconazole by microdilution method; format: functional
[22] = test system: Candida albicans; experiment: Antifungal activity against Candida albicans CA602 in presence of fluconazole by microdilution method; format: functional
[23] = test system: Candida albicans; experiment: Antifungal activity against Candida albicans ATCC14053 assessed as fractional inhibitory concentration index in presence of fluconazole by microdilution method; format: functional
[24] = test system: Candida albicans; experiment: Antifungal activity against Candida albicans CA187 assessed as fractional inhibitory concentration index in presence of fluconazole by microdilution method; format: functional
[25] = test system: Candida albicans; experiment: Antifungal activity against Candida albicans CA800 assessed as fractional inhibitory concentration index in presence of fluconazole by microdilution method; format: functional
[26] = test system: Candida albicans; experiment: Antifungal activity against Candida albicans CA3816 assessed as fractional inhibitory concentration index in presence of fluconazole by microdilution method; format: functional
[27] = test system: Candida albicans; experiment: Antifungal activity against Candida albicans CA3511 assessed as fractional inhibitory concentration index in presence of fluconazole by microdilution method; format: functional
[28] = test system: Candida albicans; experiment: Antifungal activity against Candida albicans CA5408 assessed as fractional inhibitory concentration index in presence of fluconazole by microdilution method; format: functional
[29] = test system: Candida albicans; experiment: Antifungal activity against Candida albicans CA558 assessed as fractional inhibitory concentration index in presence of fluconazole by microdilution method; format: functional
[30] = test system: Candida albicans; experiment: Antifungal activity against Candida albicans CA602 assessed as fractional inhibitory concentration index in presence of fluconazole by microdilution method; format: functional
[31] = test system: Candida albicans; experiment: Antifungal activity against Candida albicans at 2 ug/mL in presence of 1 ug/mL fluconazole by Time-kill curve assay; format: functional, organism-based; settings: dose 2.0 µg/ml
[32] = test system: Candida albicans; experiment: Antifungal activity against Candida albicans ATCC14053 assessed as decrease in number of hyphae at 2 ug/mL in presence of 1 ug/mL fluconazole by microscopic analysis; format: functional, organism-based; settings: dose 2.0 µg/ml
[33] = test system: Candida albicans; experiment: Antifungal activity against Candida albicans ATCC14053 assessed as shortened length of hyphae at 2 ug/mL in presence of 1 ug/mL fluconazole by microscopic analysis; format: functional, organism-based; settings: dose 2.0 µg/ml
[34] = test system: Candida albicans; experiment: Induction of ROS production in Candida albicans at 2 ug/ml in presence of 1 ug/mL fluconazole by DCFH-DA assay; format: functional; settings: dose 2.0 µg/ml
[35] = test system: Candida albicans; experiment: Induction of mitochondrial membrane potential loss in Candida albicans at 2 ug/ml after 16 hrs in presence of 1 ug/mL fluconazole by JC-1 staining based fluorescence microplate reader; format: functional, organism-based; settings: dose 2.0 µg/ml
[36] = test system: Candida albicans; experiment: Induction of mitochondrial membrane potential loss in Candida albicans at 2 ug/ml after 16 hrs by JC-1 staining based fluorescence microplate reader; format: functional, organism-based; settings: dose 2.0 µg/ml
[37] = test system: Candida albicans; experiment: Effect on cell membrane permeability ib Candida albicans assessed as cell membrane damage at 2 ug/ml measured after 8 to 24 hrs in presence of 1 ug/mL fluconazole by PI staining based fluorescence analysis; format: functional; settings: dose 2.0 µg/ml, time 8-24 hrs
[38] = Cytotoxicity against PBMC (unknown origin) by MTT assay; format: toxicity, cell-based
[39] = Cytotoxicity against human 16HBE by MTS assay; format: toxicity, cell-based; settings: 16HBE14o- cells

Oc1c(Br)cccc1C(c1c[nH]c2ccccc12)c1c[nH]c2ccccc12
MIC80 [1]: > 200 µg/mL | MIC80 [2]: > 200 µg/mL | MIC80 [3]: 1.22 µg/mL | MIC80 [4]: 5.82 µg/mL | fractional inhibitory concentration index (FICI) [5]: 0.04 | fractional inhibitory concentration index (FICI) [6]: 0.02 | MIC80 [7]: > 200 µg/mL | MIC80 [8]: > 200 µg/mL | MIC80 [9]: > 200 µg/mL | MIC80 [10]: > 200 µg/mL | MIC80 [11]: > 200 µg/mL | MIC80 [12]: > 200 µg/mL | MIC80 [13]: > 200 µg/mL | MIC80 [14]: > 200 µg/mL | MIC80 [15]: 1.37 µg/mL | MIC80 [16]: 4.5 µg/mL | MIC80 [17]: 2.63 µg/mL | MIC80 [18]: 1.38 µg/mL | MIC80 [19]: 5.96 µg/mL | MIC80 [20]: 1.33 µg/mL | MIC80 [21]: 5.61 µg/mL | MIC80 [22]: 5.69 µg/mL | fractional inhibitory concentration index (FICI) [23]: 0.01 | fractional inhibitory concentration index (FICI) [24]: 0.02 | fractional inhibitory concentration index (FICI) [25]: 0.01 | fractional inhibitory concentration index (FICI) [26]: 0.01 | fractional inhibitory concentration index (FICI) [27]: 0.03 | fractional inhibitory concentration index (FICI) [28]: 0.01 | fractional inhibitory concentration index (FICI) [29]: 0.03 | fractional inhibitory concentration index (FICI) [30]: 0.03 | Activity [31]: Active | Activity [32]: Active | Activity [33]: Active | Activity [34]: Active | Activity [35]: Active | Activity [36]: Active | Activity [37]: Active | CC50 [38]: 32.7 µg/mL (≈ 78.5 µM) | CC50 [39]: 35.6 µg/mL (≈ 85.3 µM)
